Measured values published in article PMC6073756, “Allicin Bioavailability and Bioequivalence from Garlic Supplements and Garlic Foods” (Nutrients, 2018).
One block for each molecule: values may come before it.

Tests used:
[1] = Allicin bioavailability or bioequivalence bioassay: 32-h breath allyl methyl sulfide (AMS) concentration curve after consumption; format: in vivo, human; conditions: two tests, same person
[2] = set-up: method as in PMID 25681129; conditions: cited from earlier work
[3] = set-up: method as in doi:10.1055/s-2006-959976; conditions: added to whole blood; cited from earlier work
[4] = cited from earlier work

Differences in Tmax, RF2, or RRF2 versus natural L(+)-alliin [1]: No significant differences
SMILES: C=CC[S+]([O-])C[C@H](N)C(=O)O (mixture of isomers) [L(±)-alliin]

SMILES: C=CCSCC(N)C(=O)O (stereo not shown) [S-allyl-cysteine, S-allylcysteine]
Administered dose accounted for among the urinary metabolites [2]: 13% | Dose in urine as SAC plus N-acetyl-SAC [2]: 1% | Dose in urine as alliin plus N-acetyl-alliin [2]: 12% | Unknown metabolites [2]: 87%

SMILES: C=CCS[S+]([O-])CC=C (stereo not shown) [allicin, diallyl thiosulfinate]
Half-life of metabolism to allyl mercaptan [3]: < 1 min | Share of the allicin consumed accounted for by breath AMS [4]: at least 90%
